# ChEMBL document CHEMBL3352537 (Bioorg Med Chem Lett, 2014)
# How the values were obtained:
# [1] = Antioxidant activity assessed as DPPH scavenging activity at 5 to 20 uM after 15 mins by UV-visible spectrophotometry; format: physicochemical
# [2] = Antioxidant activity assessed as superoxide anion radical scavenging activity at 5 to 20 uM by xanthine/xanthine oxidase assay; format: physicochemical
# [3] = molecular target: Prostaglandin G/H synthase 1 (Homo sapiens) (UniProt P23219); assay: Inhibition of COX1 (unknown origin) using arachidonic acid as substrate at […] after 10 mins by luminometry
# [4] = molecular target: Transcription factor p65 (Homo sapiens) (UniProt Q04206); assay: Inhibition of LPS-induced NF-kappaB p65 activation in human THP1 cells preincubated at 10 uM for 15 mins before LPS treatment measured after 16 hrs; format: cell-based; settings: THP-1
# Chain of Transcription factor p65 (Homo sapiens) (Q04206 whole entry): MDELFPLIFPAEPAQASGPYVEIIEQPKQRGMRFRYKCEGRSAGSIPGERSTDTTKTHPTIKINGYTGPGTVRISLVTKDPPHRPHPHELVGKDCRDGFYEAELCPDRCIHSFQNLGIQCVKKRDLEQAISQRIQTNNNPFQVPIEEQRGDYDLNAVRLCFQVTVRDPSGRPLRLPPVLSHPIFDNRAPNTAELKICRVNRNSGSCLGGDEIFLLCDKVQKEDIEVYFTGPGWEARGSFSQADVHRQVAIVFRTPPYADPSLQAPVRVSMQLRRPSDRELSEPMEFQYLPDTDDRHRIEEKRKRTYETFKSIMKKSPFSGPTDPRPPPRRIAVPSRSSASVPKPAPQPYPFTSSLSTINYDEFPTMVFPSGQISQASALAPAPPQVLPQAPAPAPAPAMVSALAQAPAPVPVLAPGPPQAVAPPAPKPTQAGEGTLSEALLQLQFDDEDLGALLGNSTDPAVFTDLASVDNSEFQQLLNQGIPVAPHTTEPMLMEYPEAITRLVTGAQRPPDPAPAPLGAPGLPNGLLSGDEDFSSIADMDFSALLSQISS
# Chain of Prostaglandin G/H synthase 1 (Homo sapiens) (P23219 whole entry): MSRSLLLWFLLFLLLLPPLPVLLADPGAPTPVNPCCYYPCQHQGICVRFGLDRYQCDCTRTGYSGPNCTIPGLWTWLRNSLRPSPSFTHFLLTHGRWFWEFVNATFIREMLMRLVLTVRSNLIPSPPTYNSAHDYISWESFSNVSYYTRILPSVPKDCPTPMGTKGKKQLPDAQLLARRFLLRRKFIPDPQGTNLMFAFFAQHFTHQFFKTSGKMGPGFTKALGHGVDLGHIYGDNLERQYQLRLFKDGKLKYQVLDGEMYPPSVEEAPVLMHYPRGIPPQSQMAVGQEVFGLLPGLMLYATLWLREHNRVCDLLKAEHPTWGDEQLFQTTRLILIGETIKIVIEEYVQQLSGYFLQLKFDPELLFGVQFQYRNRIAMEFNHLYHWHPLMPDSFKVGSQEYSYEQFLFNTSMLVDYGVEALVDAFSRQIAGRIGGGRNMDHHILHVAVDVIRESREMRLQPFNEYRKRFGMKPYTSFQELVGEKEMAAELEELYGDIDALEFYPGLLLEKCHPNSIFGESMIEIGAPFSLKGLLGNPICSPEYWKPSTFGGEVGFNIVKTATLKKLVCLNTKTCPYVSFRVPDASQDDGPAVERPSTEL
Compound,Activity [1],Activity [2] [%],inhibition [3] [%],inhibition [4] [%]
O=C(O)c1ccc(O)cc1 [PARABEN],Active,–,–,–
Oc1ccc(CCNCc2ccc(O)c(O)c2)cc1,Active,33,51,23
COc1cc(C(=O)O)ccc1O [VANILLIC ACID],Active,–,–,–
